In ChEMBL document CHEMBL1136624, “Synthesis and anticancer effect of chrysin derivatives” (Bioorg Med Chem Lett, 2003):

What was measured:
HT-29 = assay: In vitro inhibitory concentration required against human colorectal adenocarcinoma HT-29 cell line; type: functional, cell-based
SGC-7901 = assay: In vitro inhibitory concentration required against human gastric adenocarcinoma SGC-7901 cell line; type: functional, cell-based

SMILES	IC50 (HT-29) [nM]	IC50 (SGC-7901) [µM]
COc1cc(OC)c2c(=O)cc(-c3ccccc3)oc2c1C(F)(F)F	2300	5.9
CC(=O)Oc1c(C(F)(F)F)c(O)c2c(=O)cc(-c3ccccc3)oc2c1C(F)(F)F	2900	–
COc1cc(OC)c2c(=O)cc(-c3ccccc3)oc2c1I	2600	2.2
CC(=O)Oc1cc(O)c2c(=O)cc(-c3ccccc3)oc2c1	3800	3.6
CC(=O)Oc1cc(OC(C)=O)c2c(=O)cc(-c3ccccc3)oc2c1 [CHRYSIN DIACETATE]	2600	4.5
COc1cc(OC)c2c(=O)cc(-c3ccccc3)oc2c1 [CHRYSIN DIMETHYL ETHER]	2000	3.7

Continued, values first:

IC50 (HT-29) [nM]	IC50 (SGC-7901) [µM]	SMILES
1900	2.5	COc1cc(O)c2c(=O)cc(-c3ccccc3)oc2c1Br
3000	4.2	CC(=O)Oc1c(I)c(O)c2c(=O)cc(-c3ccccc3)oc2c1I
4400	2.9	O=c1cc(-c2ccccc2)oc2c(I)c(O)c(I)c(O)c12
2300	2.8	O=c1cc(-c2ccccc2)oc2c([N+](=O)[O-])c(O)cc(O)c12
2300	6.4	COc1c([N+](=O)[O-])c(O)c2c(=O)cc(-c3ccccc3)oc2c1I
4000	5.1	O=c1cc(-c2ccccc2)oc2c(Br)c(O)c(Br)c(O)c12
3100	5.8	O=c1cc(-c2ccccc2)oc2cc(O)cc(O)c12 [CHRYSIN]
